Among the test systems are PC-3; NCI-H226; U-251; NCI/ADR-RES; 786-0; HT-29; CAKI-1; HCT-116; NCI-H522; OVCAR-5; UACC-257; SR; SNB-19; CCRF-CEM; SK-MEL-5; HOP-92; RXF 393; SK-MEL-28; M14; T47D.
Common to all, as to experiment: NCI-60 cell line screen, 48 h

The values below come from ChEMBL document CHEMBL1201862, “PubChem BioAssay data set” (2004).

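Values below derive from 48-hour exposures of cells grown in 96-well plates, with endpoints linearly interpolated between the two concentrations bracketing the appropriate inhibition level. GI50 = concentration required for 50% inhibition of growth.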 Calls of active or inactive are those of the source. Rule as the data show it: active = GI50 up to about 1.1 µM and inactive = higher.

Regarding `O=c1n(CCCN2CCN(c3cccc(Cl)c3)CC2)nc2n1-c1ccc3ccccc3c1SC2`, the GI50 in the test with PC-3 was > 100 µM (inactive); in the test on NCI-H226, > 100 µM (inactive); in the test with U-251 it was > 100 µM (inactive); in the test with NCI/ADR-RES, > 100 µM (inactive); with 786-0 it was > 100 µM (inactive); with HT-29, 9.04 µM (inactive). Besides, the GI50 with CAKI-1 was > 100 µM (inactive); in the test with HCT-116, 9.46 µM (inactive); in the test with NCI-H522 it was > 100 µM (inactive); in the test with OVCAR-5, > 100 µM (inactive); in the test on UACC-257 it was > 100 µM (inactive); with SR it was > 100 µM (inactive). Besides, the GI50 in the test with SNB-19 was > 100 µM (inactive); in the test on CCRF-CEM, > 100 µM (inactive); with SK-MEL-5, 6.01 µM (inactive); with HOP-92 it was > 100 µM (inactive); in the test on RXF 393, > 100 µM (inactive); with SK-MEL-28 it was > 100 µM (inactive).
Turning to `COc1cc(OC)cc(-c2cc(=O)c3c(OC)c(OC)c(OC)c(OC)c3o2)c1`, the GI50 in the test with M14 was 37.2 µM (inactive); in the test with NCI-H226 it was 32.1 µM (inactive); with U-251, 31.9 µM (inactive); with NCI/ADR-RES it was 29.8 µM (inactive); with 786-0, 29.9 µM (inactive); with HT-29, 28.7 µM (inactive). The GI50 in the test with CAKI-1 is > 100 µM (inactive); in the test on HCT-116, 31.3 µM (inactive); in the test on NCI-H522 it was 21.2 µM (inactive); in the test with OVCAR-5, 47.3 µM (inactive); with UACC-257 it was 39.2 µM (inactive); in the test with SR, > 100 µM (inactive). The GI50 was 20.9 µM (inactive) with T47D; 38.5 µM (inactive) with SNB-19; 20.5 µM (inactive) in the test on CCRF-CEM; 19.8 µM (inactive) in the test with SK-MEL-5; 16.7 µM (inactive) in the test with HOP-92; 18.2 µM (inactive) with RXF 393. For the same compound, the GI50 with SK-MEL-28 is 40.3 µM (inactive).
Regarding `O=C1ON=C2C3CC4CC12CC1(C3)C(=O)ON=C41`, the GI50 in the test on PC-3, in the test with M14, in the test on NCI-H226, with U-251, with NCI/ADR-RES and with 786-0 was > 100 µM (inactive) each time. In addition, the GI50 with HT-29, with CAKI-1, in the test on HCT-116, in the test on NCI-H522, in the test with OVCAR-5 and in the test on UACC-257 was > 100 µM (inactive) in each case. Besides, the GI50 in the test on SR, with SNB-19, in the test on CCRF-CEM, with SK-MEL-5, in the test with HOP-92 and in the test with RXF 393 was > 100 µM (inactive) in each case. Besides, the GI50 in the test with SK-MEL-28 was > 100 µM (inactive).
Take `CN1CCN(c2cc3c(cc2F)c(=O)c(C(=O)O)cn3C2CC2)CC1CC#N` (stereo not given): the GI50 in the test on NCI-H226, in the test on U-251, in the test on NCI/ADR-RES, with 786-0, in the test with HT-29 and in the test with CAKI-1 was > 100 µM (inactive) in each case. Also, the GI50 in the test on HCT-116, in the test on OVCAR-5, in the test on UACC-257, in the test with SR, in the test on T47D and in the test with SNB-19 was > 100 µM (inactive) each time. Moreover, the GI50 in the test on CCRF-CEM, with SK-MEL-5, in the test with RXF 393 and with SK-MEL-28 was > 100 µM (inactive) each time.
For the compound `O=C(Nc1nc(C23CC4CC(CC(C4)C2)C3)cs1)c1cc2cc([N+](=O)[O-])ccc2oc1=O`, the GI50 with PC-3 is 56.9 µM (inactive); in the test with NCI-H226, > 100 µM (inactive); in the test on U-251, 43 µM (inactive); in the test on NCI/ADR-RES, 35.7 µM (inactive); in the test with 786-0 it was 17.7 µM (inactive); in the test on HT-29, 58.1 µM (inactive). Moreover, the GI50 with CAKI-1 was > 100 µM (inactive); with HCT-116, 37 µM (inactive); in the test with NCI-H522, > 100 µM (inactive); in the test with OVCAR-5 it was > 100 µM (inactive); with UACC-257 it was > 100 µM (inactive); in the test with SR it was 68.4 µM (inactive). In addition, the GI50 is 72.1 µM (inactive) in the test on SNB-19; 55.6 µM (inactive) with CCRF-CEM; 25.6 µM (inactive) in the test on SK-MEL-5; 54.8 µM (inactive) in the test with HOP-92; 19.2 µM (inactive) in the test on RXF 393; 75.5 µM (inactive) in the test with SK-MEL-28.
Regarding `CCOc1ccc(NC(=O)/C=C/c2ccco2)cc1`, the GI50 is 35.6 µM (inactive) in the test with PC-3; 58.2 µM (inactive) in the test on M14; 86.9 µM (inactive) in the test with NCI-H226; 33.8 µM (inactive) in the test with U-251; 30.8 µM (inactive) with NCI/ADR-RES; > 100 µM (inactive) in the test on 786-0. Besides, the GI50 with HT-29 is 26.4 µM (inactive); in the test with CAKI-1, > 100 µM (inactive); in the test with HCT-116, 41.2 µM (inactive); with NCI-H522, > 100 µM (inactive); with OVCAR-5, > 100 µM (inactive); in the test with UACC-257, 72.9 µM (inactive). Further, the GI50 in the test with SR was 28.8 µM (inactive); in the test on SNB-19 it was > 100 µM (inactive); with CCRF-CEM it was 34.8 µM (inactive); with SK-MEL-5, 44.3 µM (inactive); in the test on RXF 393, 67.1 µM (inactive); in the test with SK-MEL-28, > 100 µM (inactive).
As to `C/C1=C/C(=O)O[C@@H]2C[C@@H](CC[C@H](C)/C=C\C=C\CC1)O[C@@](O)([C@@H]1CSC(=O)N1)C2` [LATRUNCULIN A], the GI50 is 0.299 µM (active) in the test with PC-3; 0.565 µM (active) with M14; 0.272 µM (active) in the test on NCI-H226; > 10 µM (inactive) in the test with U-251; 3.01 µM (inactive) in the test on NCI/ADR-RES; 0.226 µM (active) in the test with 786-0. Moreover, the GI50 in the test with HT-29 is 0.417 µM (active); in the test with CAKI-1 it was 0.0741 µM (active); in the test on HCT-116, 0.773 µM (active); in the test with OVCAR-5 it was 0.484 µM (active); with UACC-257 it was 2.51 µM (inactive); in the test with SR, 0.653 µM (active). Besides, the GI50 in the test with SNB-19 was 0.611 µM (active); in the test on CCRF-CEM, 0.438 µM (active); in the test on SK-MEL-5, 0.444 µM (active); in the test with HOP-92, 0.116 µM (active); with RXF 393, 0.191 µM (active); in the test on SK-MEL-28, 1.12 µM (inactive).
For the compound `CCOC(=O)C(=[N+]=[N-])C(=O)Nc1nn2nnnc2c2ccccc12`, the GI50 with PC-3, with M14, in the test on NCI-H226, with U-251, in the test with NCI/ADR-RES and with 786-0 was > 100 µM (inactive) in each case. For the same compound, the GI50 in the test on HT-29, in the test with CAKI-1, in the test on HCT-116, with NCI-H522, with OVCAR-5 and in the test on UACC-257 was > 100 µM (inactive) throughout. Besides, the GI50 in the test on SR, with SNB-19, in the test on CCRF-CEM, with SK-MEL-5, in the test on HOP-92 and with RXF 393 was > 100 µM (inactive) throughout. The GI50 with SK-MEL-28 was > 100 µM (inactive).
